The values that follow come from US6506772B1, “Substituted [1,2,4]triazolo[1,5a]pyridine derivatives with activity as adenosine receptor ligands” (Hoffmann-La Roche Inc., priority 2000, dated 2003).

Assay [1] deals with T1, human adenosine A2A receptor (Homo sapiens, UniProt P29274).
T1 construct: expressed in transfected cells; host or cells: CHO cells, Semliki Forest virus expression system; membrane preparation
The experiment in a line: Human adenosine A2A receptor [3H]-SCH-58261 binding assay.

Another assay addresses T2, HA1 adenosine receptor (Homo sapiens, UniProt P30542).
T2 sequence (P30542 1-326): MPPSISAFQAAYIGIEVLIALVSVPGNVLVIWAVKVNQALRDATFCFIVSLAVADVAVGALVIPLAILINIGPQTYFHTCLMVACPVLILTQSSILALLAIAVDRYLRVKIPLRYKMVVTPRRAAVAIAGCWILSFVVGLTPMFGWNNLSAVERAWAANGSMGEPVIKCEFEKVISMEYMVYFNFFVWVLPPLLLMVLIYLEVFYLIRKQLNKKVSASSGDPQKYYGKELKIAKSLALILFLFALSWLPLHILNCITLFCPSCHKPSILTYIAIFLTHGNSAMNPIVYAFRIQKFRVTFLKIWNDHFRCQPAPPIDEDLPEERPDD
Description: Human adenosine A1 receptor affinity (Ki hA1). The format is binding.

[2] abbreviates: affinity to human adenosine A2A receptor, read-out: Ki HA2A.
The mark [3] stands for this setting: calculated ratio of the affinity to the HA1 receptor to the HA2a receptor.
[4] abbreviates: affinity to human adenosine A1 receptor.
Setting [5] is: recombinant human A2A in CHO cell membranes, [3H]-SCH-58261, Cheng-Prussoff, read-out: Ki hA2A.

Read-outs that look alike come from different tables or passages of the source.

T1 sequence (P29274 whole entry): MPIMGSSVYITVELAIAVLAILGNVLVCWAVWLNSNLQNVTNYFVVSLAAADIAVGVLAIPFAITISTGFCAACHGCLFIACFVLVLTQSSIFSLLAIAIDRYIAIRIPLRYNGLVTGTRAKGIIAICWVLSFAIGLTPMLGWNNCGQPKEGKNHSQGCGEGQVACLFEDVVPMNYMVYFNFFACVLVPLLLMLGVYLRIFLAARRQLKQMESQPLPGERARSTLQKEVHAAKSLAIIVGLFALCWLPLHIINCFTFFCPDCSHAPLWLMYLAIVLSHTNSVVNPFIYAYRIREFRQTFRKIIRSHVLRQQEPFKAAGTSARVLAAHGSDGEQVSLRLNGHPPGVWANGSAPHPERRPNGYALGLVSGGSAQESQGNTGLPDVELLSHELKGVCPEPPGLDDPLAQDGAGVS

Broadly, the Ki is the equilibrium dissociation constant of an inhibitor or competing ligand from its target. In the case of `CC(C)N(C(=O)c1cc(N)n2nc(-c3ccc(Br)o3)nc2c1)C1CCCCC1` [Example 351, 5-Amino-2-(5-bromo-furan-2-yl)-[1,2,4]triazolo[1,5-a]pyridine-7-carboxylic acid cyclohexyl-isopropyl-amide], the Ki is 2.9 nM in assay [1] (setting [2]) and 77.3 nM on HA1 adenosine receptor (setting [4]). The “selectivity (A1/A2a)” value in assay [1] (setting [3]) is reported as 26.7.

Regarding `Nc1cc(C(=O)N2CCN(c3ccccc3)CC2)cc2nc(-c3ccc(Br)o3)nn12` [Example 353, [5-Amino-2-(5-bromo-furan-2-yl)-[1,2,4]triazolo[1,5-a]pyridin-7-yl]-(4-phenyl-piperazin-1-yl)-methanone], the inhibition constant Ki in assay [1] (setting [2]) was 81.5 nM; on HA1 adenosine receptor (setting [4]), 1040 nM. For the same molecule, in assay [1] (setting [3]), the “selectivity (A1/A2a)” value is recorded as 12.7.

In the case of `Nc1cc(C(=O)N2CCCCC2c2cccnc2)cc2nc(-c3ccc(Br)o3)nn12` (stereo not drawn) [Example 354, [5-Amino-2-(5-bromo-furan-2-yl)-[1,2,4]triazolo[1,5-a]pyridin-7-yl]-(3,4,5,6-tetrahydro-2H-[2,3′]bipyridinyl-1-yl)-methanone], the inhibition constant (Ki) came to 2.9 nM in assay [1] (setting [2]) and 45.5 nM on HA1 adenosine receptor (setting [4]). Moreover, the “selectivity (A1/A2a)” value in assay [1] (setting [3]) is recorded as 15.7.

For the molecule `Nc1cc(C(=O)N2CCc3c([nH]c4ccccc34)C2)cc2nc(-c3ccc(Br)o3)nn12` [Example 355, [5-Amino-2-(5-bromo-furan-2-yl)-[1,2,4]triazolo[1,5-a]pyridin-7-yl]-(1,3,4,9-tetrahydro-b-carbolin-2-yl)-methanone], the values for the Ki (in assay [1] (setting [2]); on HA1 adenosine receptor (setting [4])) were 47 nM and 286 nM, respectively. Moreover, the “selectivity (A1/A2a)” value in assay [1] (setting [3]) is on record as 6.1.

`C[C@@H]1CCC[C@H](C)N1C(=O)c1cc(N)n2nc(-c3nccs3)nc2c1` [Example 358, (5-Amino-2-thiazol-2-yl-[1,2,4]triazolo[1,5-a]pyridin-7-yl)-(cis-2,6-dimethyl-piperidin-1-yl)-methanone]: the figures for the Ki (in assay [1] (setting [2]); at HA1 adenosine receptor (setting [4])) were 74.7 nM and 1720 nM, respectively. The “selectivity (A1/A2a)” value in assay [1] (setting [3]) is 23.0.

On to `C[C@@H]1CC[C@@H](C)N1C(=O)c1cc(N)n2nc(-c3ccc(Br)o3)nc2c1` [Example 359, [5-Amino-2-(5-bromo-furan-2-yl)-[1,2,4]triazolo[1,5-a]pyridin-7-yl]-[(2R,5R)-trans-2,5-dimethyl-pyrrolidin-1-yl]-methanone], for which the Ki in assay [1] (setting [2]) is 7.3 nM; at HA1 adenosine receptor (setting [4]), 934 nM. The “selectivity (A1/A2a)” value in assay [1] (setting [3]) is given as 128.0.

As for `C[C@@H]1CN(C(=O)c2cc(N)n3nc(-c4ccc(Br)o4)nc3c2)C[C@H](C)O1` [Example 360, [5-Amino-2-(5-bromo-furan-2-yl)-[1,2,4]triazolo[1,5-a]pyridin-7-yl]-(cis-2,6-dimethyl-morpholin-4-yl)-methanone], the Ki in assay [1] (setting [2]) amounted to 7.7 nM; on HA1 adenosine receptor (setting [4]), 422 nM. The “selectivity (A1/A2a)” value in assay [1] (setting [3]) is on record as 54.9.

With `Nc1cc(C(=O)N2CCCC3CCCCC32)cc2nc(-c3nccs3)nn12` (stereo not drawn) [Example 379, (5-Amino-2-thiazol-2-yl-[1,2,4]triazolo[1,5-a]pyridin-7-yl)-(octahydro-quinolin-1-yl)-methanone], the “selectivity (A1/A2a)” value in assay [1] (ratio KiHA1 divided by KiHA2A) was determined as 17.2. In addition, the inhibition constant (Ki) in assay [1] (setting [5]) came out at 33.5 nM; on HA1 adenosine receptor, 577 nM.

As for `Nc1cc(C(=O)N2CCC3CCCCC3C2)cc2nc(-c3nccs3)nn12` (stereo not drawn) [Example 380, (5-Amino-2-thiazol-2-yl-[1,2,4]triazolo[1,5-a]pyridin-7-yl)-(octahydro-isoquinolin-2-yl)-methanone], the “selectivity (A1/A2a)” value in assay [1] (ratio KiHA1 divided by KiHA2A) is on record as 24.8. The inhibitory constant (Ki) amounted to 76.9 nM in assay [1] (setting [5]) and 1910 nM on HA1 adenosine receptor.

Regarding `CCN(CC)C(=O)C1CCCN(C(=O)c2cc(N)n3nc(-c4nccs4)nc3c2)C1` (stereo not drawn) [Example 381, 1-(5-Amino-2-thiazol-2-yl-[1,2,4]triazolo[1,5-a]pyridine-7-carbonyl)-piperidine-3-carboxylic acid diethylamide], the “selectivity (A1/A2a)” value in assay [1] (ratio KiHA1 divided by KiHA2A) amounted to 11.4. The Ki in assay [1] (setting [5]) came out at 180 nM; on HA1 adenosine receptor it was 2050 nM.

Regarding `C=CCN(C(=O)c1cc(N)n2nc(-c3nccs3)nc2c1)C1CCCC1` [Example 382, 5-Amino-2-thiazol-2-yl-[1,2,4]triazolo[1,5-a]pyridine-7-carboxylic acid allyl-cyclopentyl-amide], the “selectivity (A1/A2a)” value in assay [1] (ratio KiHA1 divided by KiHA2A) was 13.4. The Ki in assay [1] (setting [5]) is 54.6 nM; on HA1 adenosine receptor, 729 nM.

In the case of `CCN(C(=O)c1cc(N)n2nc(-c3nccs3)nc2c1)C1CCCCC1` [Example 383, 5-Amino-2-thiazol-2-yl-[1,2,4]triazolo[1,5-a]pyridine-7-carboxylic acid cyclohexyl-ethyl-amide], the “selectivity (A1/A2a)” value in assay [1] (ratio KiHA1 divided by KiHA2A) is on record as 13.9. Also, the inhibition constant (Ki) in assay [1] (setting [5]) came to 81.2 nM; on HA1 adenosine receptor, 1130 nM.

Turning to `COC[C@@H]1CC[C@@H](COC)N1C(=O)c1cc(N)n2nc(-c3ccc(Br)o3)nc2c1` [Example 387, [5 -Amino-2-(5-bromo-furan-2-yl)-[1,2,4]triazolo[1,5-a]pyridin-7-yl]-(S,S-2,5-bis-methoxymethyl-pyrrolidin-1-yl)-methanone], the “selectivity (A1/A2a)” value in assay [1] (ratio KiHA1 divided by KiHA2A) was determined as 21.5. In addition, the Ki in assay [1] (setting [5]) is 118 nM; at HA1 adenosine receptor, 2540 nM.

`NC(=O)[C@@H]1CCCN1C(=O)c1cc(N)n2nc(-c3ccc(Br)o3)nc2c1` [Example 388, 1-[5-Amino-2-(5-bromo-furan-2-yl)-[1,2,4]triazolo[1,5-a]pyridine-7-carbonyl]-L-pyrrolidine-2-carboxylic acid amide]: the “selectivity (A1/A2a)” value in assay [1] (ratio KiHA1 divided by KiHA2A) turned out to be 12.4. Further, the Ki in assay [1] (setting [5]) came out at 26.7 nM; at HA1 adenosine receptor it was 330 nM.

As for `NC(=O)[C@@H]1CCCN1C(=O)c1cc(N)n2nc(-c3ccc(Br)o3)nc2c1` [Example 389, 1-[5-Amino-2-(5-bromo-furan-2-yl)-[1,2,4]triazolo[1,5-a]pyridine-7-carbonyl]-D-pyrrolidine-2-carboxylic acid amide], in assay [1] (ratio KiHA1 divided by KiHA2A), the “selectivity (A1/A2a)” value is 39.1. The inhibition constant Ki was determined as 9.8 nM in assay [1] (setting [5]) and 383 nM on HA1 adenosine receptor.

Regarding `CN(C)C(=O)C1CCCN1C(=O)c1cc(N)n2nc(-c3ccc(Br)o3)nc2c1` (stereo not drawn) [Example 390, 1-[5-Amino-2-(5-bromo-furan-2-yl)-[1,2,4]triazolo[1,5-a]pyridine-7-carbonyl]-pyrrolidine-2-carboxylic acid dimethylamide], the “selectivity (A1/A2a)” value in assay [1] (ratio KiHA1 divided by KiHA2A) is 98. Further, the Ki in assay [1] (setting [5]) is 8.3 nM; at HA1 adenosine receptor it was 813 nM.

Take `CC(=O)NC1CCN(C(=O)c2cc(N)n3nc(-c4ccc(Br)o4)nc3c2)C1` (stereo not drawn) [Example 391, N-{1-[5-Amino-2-(5-bromo-furan-2-yl)-[1,2,4]triazolo[1,5-a]pyridine-7-carbonyl]-pyrrolidin-3-yl}-acetamide]: the “selectivity (A1/A2a)” value in assay [1] (ratio KiHA1 divided by KiHA2A) came out at 27.6. In addition, the figures for the inhibition constant Ki (in assay [1] (setting [5]); on HA1 adenosine receptor) were 53 nM and 1460 nM, respectively.

Consider `CC(=O)N(C)C1CCN(C(=O)c2cc(N)n3nc(-c4ccc(Br)o4)nc3c2)C1` (stereo not drawn) [Example 392, N-{1-[5-Amino-2-(5-bromo-furan-2-yl)-[1,2,4]triazolo[1,5-a]pyridine-7-carbonyl]-pyrrolidin-3-yl}-N-methyl-acetamide], for which the “selectivity (A1/A2a)” value in assay [1] (ratio KiHA1 divided by KiHA2A) amounted to 51.2. For the same molecule, the inhibition constant Ki in assay [1] (setting [5]) stood at 34.7 nM; at HA1 adenosine receptor, 1780 nM.

With `CCC1CCC(C)N(C(=O)c2cc(N)n3nc(-c4ccc(Br)o4)nc3c2)C1` (stereo not drawn) [Example 393, [5-Amino-2-(5-bromo-furan-2-yl)-[1,2,4]triazolo[1,5-a]pyridin-7-yl]-(5-ethyl-2-methyl-piperidin-1-yl)-methanone], the “selectivity (A1/A2a)” value in assay [1] (ratio KiHA1 divided by KiHA2A) was 32.9. Besides, the Ki in assay [1] (setting [5]) is 2.9 nM; on HA1 adenosine receptor, 95.3 nM.
